Data: article PMC7688903 (Frontiers in Microbiology, 2020)
≈ marks a conversion by molar mass, not a printed value. Where a SMILES comes first, the peptide text is derived from it. [ ]: non-standard residue; d: D form. 2Thi = N[C@@H](Cc1cccs1)C(=O)O; Aib = CC(C)(N)C(=O)O

Legend:
C. albicans ATCC 10231 = assay: microbe, parasite or virus in culture; assay type: cell-based, Candida albicans; conditions: ATCC 10231, 48 h
Procedure, shortened: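 Inocula were set to 0.5 McFarland and diluted to ~5 × 10^5 CFU/mL (bacteria, MH broth) or 0.5 × 10^3 to 2.5 × 10^3 CFU/mL (yeast, RPMI 1640). Peptide twofold dilutions were added, plates incubated 20 h at 37°C or 48 h at 35°C, then scored by eye.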

[1] = Hydrophobicity by RP-HPLC retention time; assay type: physicochemical
Procedure: Each peptide was dissolved in ddH2O to a concentration of 0.5 mg/mL and then subjected to RP-HPLC on an analytical Waters XBridge C18 column (length: 250 mm, internal diameter: 4.6 mm) using 0.1% TFA in water as solvent A and 0.1% TFA in acetonitrile as solvent B. The peptides were eluted using a linear gradient as follows: 5%B to 45%B over 20 min, 45%B to 60%B over 2 min, and 60%B to 5%B over 1 min. The flow rate was 1 mL/min and the absorbance was measured at 215 nm. The retention time was recorded for each peptide ([Kim et al., 2005]).
Peptide hydrophobicity, net charge, amphipathic nature, and secondary structure are believed to be important for antimicrobial activity ([Lee et al., 2016]; [Li J. et al., 2017]). Among these, hydrophobicity has been recognized as an important factor to promote hydrophobic interaction with the hydrophobic core of the lipid bilayer, leading to membrane disruption, cytoplasm leakage, and eventual cell death ([Schmidtchen et al., 2014]). However, the actual hydrophobicity in liquid environment has been reported to usually show disagreement with the theoretical mean hydrophobicity ([Kim et al., 2005]). […] More hydrophobic compounds are typically eluted later from the column. […]

human plasma proteases [2] = assay: in vitro
human erythrocytes = assay: Hemolytic activity assay; assay type: cell-based; conditions: human RBC in PB, 37°C, 1 h, OD420, total lysis control 0.1% SDS, three technical replicates
Procedure, shortened: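 Washed RBCs from a healthy volunteer were incubated with peptides at 32–128 μM for 1 h at 37°C in PB. Hemoglobin release into the supernatant was read as OD420 against total lysis with 0.1% SDS, in three technical replicates.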

[3] = tested on: proteases secreted by P. aeruginosa ATCC 27853; assay: in vitro; conditions: Pseudomonas aeruginosa, P. aeruginosa ATCC 27853 culture supernatant, pH 8
Procedure, shortened: (§1)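 Cell-free culture supernatants (overnight, 37°C; MH broth for bacteria, 2% tryptone/2% dextrose for yeast) were centrifuged, adjusted to pH 8.0 and 0.22 μm filtered. Peptides at 0.5 mg/mL were incubated in supernatant 24 h at 37°C; remaining intact peptide measured by RP-HPLC, with peptide-free supernatant as negative control.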

[4] = tested on: proteases secreted by A. baumannii ATCC 19606; assay: in vitro; conditions: Acinetobacter baumannii, A. baumannii ATCC 19606 culture supernatant, pH 8
Procedure, shortened: as §1

[5] = tested on: proteases secreted by C. albicans ATCC 10231; assay: in vitro; conditions: C. albicans ATCC 10231 culture supernatant (2% tryptone/2% dextrose), pH 8.0, 0.22 μm filtered; peptide 0.5 mg/mL; 37°C, 24 h; RP-HPLC
Procedure, shortened: as §1

human plasma proteases [6] = tested on: human plasma proteases

Row | Structure (SMILES) | MIC (C. albicans ATCC 10231) | relative retention time (RRT) with respect to Pep05 ([1]; RP-HPLC retention time of peptide / that of Pep05, C18, acetonitrile/water/TFA) | RT (RP-HPLC retention time, measure of hydrophobicity) ([1]; chromatographic, Waters XBridge C18 250 x 4.6 mm, 0.5 mg/mL in ddH2O, A 0.1% TFA/water, B 0.1% TFA/acetonitrile, 5-45%B over 20 min, 1 mL/min, UV 215 nm) | remaining at 12 h, 0.1 mg/mL (human plasma proteases [2]) | remaining at 24 h, 0.1 mg/mL (human plasma proteases [2]) | Hemolysis rate (%) (human erythrocytes; 64 μM) | Hemolysis rate (%) (human erythrocytes; 128 μM) | remaining at 8 h, 0.1 mg/mL (human plasma proteases [2]) | remaining at 24 h, 0.5 mg/mL [3] | remaining at 24 h, 0.5 mg/mL [4] | Percent of remained peptide amount after incubation (%) [5] | degradation products by plasma proteases (LC-MS) (human plasma proteases [6])
1 | CC(C)C[C@H](NC(=O)[C@H](Cc1ccc(O)cc1)NC(=O)[C@H](CCCCN)NC(=O)[C@H](CC(C)C)NC(=O)[C@H](CC(C)C)NC(=O)[C@H](CCCCN)NC(=O)[C@H](CCCCN)NC(=O)[C@H](Cc1ccccc1)NC(=O)[C@H](CC(C)C)NC(=O)[C@H](CCCNC(=N)N)NC(=O)C(C)(C)N)C(=O)N[C@@H](CCCNC(=N)N)C(=O)N[C@@H](CCCCN)C(=O)N[C@@H](Cc1cccs1)C(N)=O [UP09] (H-[Aib]RLFKKLLKYLRK[2Thi]-NH2; N-terminus assumed) | 4 mg/L (≈ 2.17 µM) | 1.08 | 16.606 min | > 50% | > 30% | 55.99 ± 3.75 % | 95.99 ± 2.10 % |  |  |  |  | 
2 | CC(C)C[C@H](NC(=O)[C@H](CC(C)C)NC(=O)[C@@H](CCCCN)NC(=O)[C@@H](CCCCN)NC(=O)[C@H](Cc1ccccc1)NC(=O)[C@H](CC(C)C)NC(=O)[C@@H](CCCNC(=N)N)NC(=O)[C@H](N)CCCCN)C(=O)N[C@H](CCCCN)C(=O)N[C@@H](Cc1ccc(O)cc1)C(=O)N[C@@H](CC(C)C)C(=O)N[C@H](CCCNC(=N)N)C(=O)N[C@H](CCCCN)C(=O)N[C@@H](Cc1ccccc1)C(N)=O [DP06] (H-[dK][dR]LF[dK][dK]LL[dK]YL[dR][dK]F-NH2) | 2 mg/L (≈ 1.06 µM) |  |  |  | > 60% | 37.14 ± 2.73% | 59.99 ± 2.41% | > 90% | 61.2 ± 6.06% | 63.5 ± 3.28% | 62.07 ± 3.27 % | No obvious degradation products
